According to patent EP4799619A1, “COMPOUND TARGETING EGR-1 AND USE THEREOF FOR TREATMENT OF ATOPIC DERMATITIS” (AgeraMedi, Inc., priority 2023, dated 2025):

Biological target: EGR-1 (Homo sapiens, UniProt P18146)
Test: EGR-1 DNA binding activity assay (EDBA)
Set-up: made in house
Settings: EGR-1 DNA binding inhibitory activity; EGR-1 overexpressing cell lysate; absorbance at 450 nm; compound concentration not given
Description: In this experiment, the inhibitory effect of the compounds of the present invention on EGR-1 binding activity was evaluated using an EGR-1 DNA binding activity assay (EDBA).
Single-stranded sense and antisense oligonucleotides of the following EGR-1 binding sequence (EBS) were prepared by outsourcing to Bioneer Co., Ltd. (Daejeon, Korea). In this case, the 5'-end of the sense oligonucleotide was labeled with biotin. The sense and antisense oligonucleotides were heated at 95 °C for 5 minutes and then left overnight at room temperature to hybridize the sense and antisense oligonucleotides. Hereinafter, the hybridized sense and antisense oligonucleotides are referred to as biotin-EBS. • Sense sequence: biotin-5'-[…]-3' • Antisense sequence: 5'-[…]-3'
Avidin protein was coated on a 96-well plate (purchased from Thermo Fisher Scientific), and biotin-EBS was added to the plate at a concentration of 0.5 pmol/50 µL/well, followed by reaction at 37 °C for 1 hour to allow biotin-EBS oligonucleotide to be attached to the plate. After washing three times with phosphate buffer saline containing 0.05% Tween 20 (PBS/Tween 20) to remove unattached biotin-EBS oligonucleotides, 200 µL of PBS/Tween 20 solution containing 2% bovine serum albumin (BSA) was added to each well, followed by reaction at 37 °C for 1 hour to block the surface of the plate where no oligonucleotide was attached.
The solution containing the sample compound and the EGR-1 protein was added to the biotin-EBS oligonucleotide coated plate prepared in step (2).
The compound sample (1 µL) was reacted with the EGR-1 overexpressing cell lysate containing 10 mM Tris, pH 7.5, 50 mM KCl, 2% BSA and 8% glycerol at room temperature for 30 minutes, and then added to a reaction well coated with biotin-EBS and further reacted at room temperature for one hour. After washing three times with PBS/Tween 20 solution, an EGR-1 antibody was added to the PBS solution supplemented with 2% BSA and 5 mM NaCl in an amount of 50 µL per each well. The mixture was incubated at room temperature for one hour, washed three times with PBS/Tween 20 solution, and then treated with horseradish peroxidase-conjugated secondary antibody (Goat anti-rabbit IgG antibody, Cell Signaling Technology company, Danvers, Mass., USA) diluted by 1:1000 at room temperature for one hour. After washing five times with PBS/Tween 20 solution, a substrate tetramethylbenzidine solution was added to each well in an amount of 50 µL. After reacting for 5 minutes, the reaction was stopped by adding 100 µL of 2 N sulfuric acid solution. The DNA binding inhibitory activity of EGR-1 was measured by absorbance at 450 nm according to Equation 1 below. EGR-1 DNA binding inhibitory activity (%) = 100−{(As/Ap)×100} [formula]
As: absorbance of a sample prepared by reacting an EGR-1-overexpressing cell lysate with the compound.
Ap: absorbance of the sample treated only with EGR-1-overexpressing cell lysate.

Sequence of EGR-1 (P18146 whole entry): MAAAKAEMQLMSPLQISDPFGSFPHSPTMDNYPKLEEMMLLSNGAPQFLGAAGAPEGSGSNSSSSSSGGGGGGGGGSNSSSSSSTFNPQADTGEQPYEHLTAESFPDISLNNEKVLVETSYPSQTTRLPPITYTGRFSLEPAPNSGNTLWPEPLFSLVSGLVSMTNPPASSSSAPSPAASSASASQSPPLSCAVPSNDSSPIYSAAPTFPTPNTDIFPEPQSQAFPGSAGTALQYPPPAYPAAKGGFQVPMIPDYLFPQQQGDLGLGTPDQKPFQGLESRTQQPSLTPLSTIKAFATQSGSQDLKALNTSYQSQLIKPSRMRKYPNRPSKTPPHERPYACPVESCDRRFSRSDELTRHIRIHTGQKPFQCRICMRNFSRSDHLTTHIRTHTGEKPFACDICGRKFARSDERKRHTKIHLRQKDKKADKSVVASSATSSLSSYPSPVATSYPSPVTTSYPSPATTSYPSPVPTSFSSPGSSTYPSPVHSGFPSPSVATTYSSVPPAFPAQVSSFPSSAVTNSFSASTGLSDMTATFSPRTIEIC

Compound | Inhibition Rate (%)
O=C1Nc2ccc(Br)cc2/C1=N/NC(=S)Nc1ccccc1 [Compound 44, (Z)-2-(5-bromo-2-oxoindolin-3-ylidene)-N-phenylhydrazinethioamide] | 5.67
O=C1Nc2cc(Br)ccc2/C1=N/NC(=S)Nc1ccccc1 [Compound 45, (Z)-2-(6-bromo-2-oxoindolin-3-ylidene)-N-phenylhydrazinethioamide] | 9.33
O=C1Nc2c(Br)cccc2/C1=N/NC(=S)Nc1ccccc1 [Compound 46, (Z)-2-(7-bromo-2-oxoindolin-3-ylidene)-N-phenylhydrazinethioamide] | 11.33
O=C1Nc2ccccc2/C1=N/NC(=S)Nc1cccc([N+](=O)[O-])c1 [Compound 47, (Z)-N-(3-nitrophenyl)-2-(2-oxoindolin-3-ylidene)hydrazinethioamide] | 35.33
O=C1Nc2ccc(Br)cc2/C1=N/NC(=S)Nc1cccc([N+](=O)[O-])c1 [Compound 48, (Z)-2-(5-bromo-2-oxoindolin-3-ylidene)-N-(3-nitrophenyl)hydrazinethioamide] | 52.00
O=C1Nc2c(Br)cccc2/C1=N/NC(=S)Nc1cccc([N+](=O)[O-])c1 [Compound 49, (Z)-2-(7-bromo-2-oxoindolin-3-ylidene)-N-(3-nitrophenyl)hydrazinethioamide] | 50.33
COc1cccc(NC(=S)N/N=C2\C(=O)Nc3ccccc32)c1 [Compound 50, (Z)-N-(3-methoxyphenyl)-2-(2-oxoindolin-3-ylidene)hydrazinethioamide] | 27.33
COc1cccc(NC(=S)N/N=C2\C(=O)Nc3cccc(Br)c32)c1 [Compound 51, (Z)-2-(4-bromo-2-oxoindolin-3-ylidene)-N-(3-methoxyphenyl)hydrazinethioamide] | 28.67
COc1cccc(NC(=S)N/N=C2\C(=O)Nc3ccc(Br)cc32)c1 [Compound 52, (Z)-2-(5-bromo-2-oxoindolin-3-ylidene)-N-(3-methoxyphenyl)hydrazinethioamide] | 9.00
COc1ccc(NC(=S)N/N=C2\C(=O)Nc3ccccc32)cc1 [Compound 53, (Z)-N-(4-methoxyphenyl)-2-(2-oxoindolin-3-ylidene)hydrazinethioamide] | 10.00
COc1ccc(NC(=S)N/N=C2\C(=O)Nc3cccc(Br)c32)cc1 [Compound 54, (Z)-2-(4-bromo-2-oxoindolin-3-ylidene)-N-(4-methoxyphenyl)hydrazinethioamide] | 12.67
COc1ccc(NC(=S)N/N=C2\C(=O)Nc3ccc(Br)cc32)cc1 [Compound 55, (Z)-2-(5-bromo-2-oxoindolin-3-ylidene)-N-(4-methoxyphenyl)hydrazinethioamide] | 11.00
COc1ccc(NC(=S)NN)cc1OC [Compound 56, N-(3,4-dimethoxyphenyl)hydrazinethioamide] | 12.67
O=C1Nc2ccccc2/C1=N/NC(=S)Nc1ccc(F)cc1 [Compound 57, (Z)-N-(4-fluorophenyl)-2-(2-oxoindolin-3-ylidene)hydrazinethioamide] | 40.10
O=C1Nc2cc(Br)ccc2/C1=N/NC(=S)Nc1ccc([N+](=O)[O-])cc1 [Compound 58, (Z)-2-(6-bromo-2-oxoindolin-3-ylidene)-N-(4-nitrophenyl)hydrazinethioamide] | 46.97
O=C1Nc2cccc(Cl)c2/C1=N/NC(=S)Nc1ccccc1 [Compound 59, (Z)-2-(4-chloro-2-oxoindolin-3-ylidene)-N-phenylhydrazinethioamide] | 40.17
O=C1Nc2cc(Cl)ccc2/C1=N/NC(=S)Nc1ccccc1 [Compound 60, (Z)-2-(6-chloro-2-oxoindolin-3-ylidene)-N-phenylhydrazinethioamide] | 48.07
COc1ccccc1NC(=S)N/N=C1\C(=O)Nc2cccc(Cl)c21 [Compound 61, (Z)-2-(4-chloro-2-oxoindolin-3-ylidene)-N-(2-methoxyphenyl)hydrazinethioamide] | 43.03

Compound | Inhibition Rate (%)
O=C1Nc2ccc(F)cc2/C1=N/NC(=S)Nc1cccc(C(F)(F)F)c1 [Compound 62, (Z)-2-(5-fluoro-2-oxoindolin-3-ylidene)-N-(3-(trifluoromethyl)phenyl)hydrazinethioamide] | 10.00
O=C1Nc2ccc(F)cc2/C1=N/NC(=S)NCc1ccccc1 [Compound 63, (Z)-N-benzyl-2-(5-fluoro-2-oxoindolin-3-ylidene)hydrazinethioamide] | 48.77
Cc1cccc(NC(=S)N/N=C2\C(=O)Nc3ccc(F)cc32)c1 [Compound 64, (Z)-2-(5-fluoro-2-oxoindolin-3-ylidene)-N-(m-tolyl)hydrazinethioamide] | 37.90
O=C1Nc2c(F)cccc2/C1=N/NC(=S)Nc1ccc([N+](=O)[O-])cc1 [Compound 65, (Z)-2-(7-fluoro-2-oxoindolin-3-ylidene)-N-(4-nitrophenyl)hydrazinethioamide] | 43.03
COc1ccc2c(c1)NC(=O)/C2=N\NC(=S)Nc1cccc(C(F)(F)F)c1 [Compound 66, (Z)-2-(6-methoxy-2-oxoindolin-3-ylidene)-N-(3-(trifluoromethyl)phenyl)hydrazinethioamide] | 11.70
COc1ccc2c(c1)NC(=O)/C2=N\NC(=S)Nc1ccc(F)cc1 [Compound 67, (Z)-N-(4-fluorophenyl)-2-(6-methoxy-2-oxoindolin-3-ylidene)hydrazin-1-carbothioamide] | 25.90
COc1ccc2c(c1)NC(=O)/C2=N\NC(=S)Nc1ccc(Br)cc1 [Compound 68, (Z)-N-(4-bromophenyl)-2-(6-methoxy-2-oxoindolin-3-ylidene)hydrazin-1-carbothioamide] | 17.80
COc1ccc2c(c1)NC(=O)/C2=N\NC(=S)NCc1ccccc1 [Compound 69, (Z)-N-benzyl-2-(6-methoxy-2-oxoindolin-3-ylidene)hydrazin-1-carbothioamide] | 14.17
Cc1ccc2c(c1)/C(=N/NC(=S)Nc1ccc(Br)cc1)C(=O)N2 [Compound 70, (Z)-N-(4-bromophenyl)-2-(5-methyl-2-oxoindolin-3-ylidene)hydrazinethioamide] | 29.60
Cc1ccc2c(c1)/C(=N/NC(=S)Nc1ccc(C#N)cc1)C(=O)N2 [Compound 71, (Z)-N-(4-cyanophenyl)-2-(5-methyl-2-oxoindolin-3-ylidene)hydrazinethioamide] | 29.93
Cc1ccc2c(c1)/C(=N/NC(=S)Nc1ccccc1)C(=O)N2 [Compound 72, (Z)-2-(5-methyl-2-oxoindolin-3-ylidene)-N-phenylhydrazinethioamide] | 19.57
CCNC(=S)N/N=C1\C(=O)Nc2ccc(C)cc21 [Compound 73, (Z)-N-ethyl-2-(5-methyl-2-oxoindolin-3-ylidene)hydrazinethioamide] | 29.80
Cc1ccc2c(c1)/C(=N/NC(=S)NCc1ccccc1)C(=O)N2 [Compound 74, (Z)-N-benzyl-2-(5-methyl-2-oxoindolin-3-ylidene)hydrazinethioamide] | 40.60
Cc1cccc(NC(=S)N/N=C2\C(=O)Nc3ccc(C)cc32)c1 [Compound 75, (Z)-2-(5-methyl-2-oxoindolin-3-ylidene)-N-(m-tolyl)hydrazinethioamide] | 39.27
O=C1Nc2ccc(OC(F)(F)F)cc2/C1=N/NC(=S)Nc1ccccc1 [Compound 76, (Z)-2-(2-oxo-5-(trifluoromethoxy)indolin-3-ylidene)-N-phenylhydrazinethioamide] | 17.23
O=C1Nc2ccc(OC(F)(F)F)cc2/C1=N/NC(=S)Nc1cccc([N+](=O)[O-])c1 [Compound 77, (Z)-N-(3-nitrophenyl)-2-(2-oxo-5-(trifluoromethoxy)indolin-3-ylidene)hydrazinethioamide] | 37.37
O=C1Nc2ccc(OC(F)(F)F)cc2/C1=N/NC(=S)Nc1ccc(F)cc1 [Compound 78, (Z)-N-(4-fluorophenyl)-2-(2-oxo-5-(trifluoromethoxy)indolin-3-ylidene)hydrazinethioamide] | 33.93
